Consider one molecule from patent publication US20250136602A1, “PROCESS FOR THE PREPARATION OF A PURE AMORPHOUS FORM OF UBROGEPANT” (MSN LABORATORIES PRIVATE LIMITED, F&D CENTER, priority 2021, published 2025).

Assay type in all cases: physicochemical
The nature of data set [1]: Long term stability of amorphous Ubrogepant (HPLC purity, PXRD). To be noted: long term stability at 25 ± 2° C. under 60 ± 5% humidity condition upto 6 months. On the procedure:
(§1) Eighth aspect of the first embodiment, the accelerated and long-term stability data of amorphous Ubrogepant of formula-1 is outlined in Table-1 as follows: […]
(§2) Ubrogepant and its related substances were analyzed by HPLC with the following chromatographic conditions: Apparatus: A liquid chromatographic system is to be equipped with variable wavelength UV-Detector and integrator; Column: Xbridge C18 150×4.6 mm, 3.5 μm Ghost-Buster column: Ghost buster 50 mm×4.6 mm; Wavelength: 210 nm; Column temperature: 25° C.; Injection volume: 5 μL; Elution: Gradient; Diluent: Acetonitrile: Water; Needle wash: Diluent.
(§3) The PXRD analysis of compound of the present invention was carried out by using BRUKER-Axis/D8 ADVANCE (DAVINCI) X-Ray diffractometer using CuKα radiation of wavelength 1.5406 A°.

The nature of data set [2]: Accelerated stability of amorphous Ubrogepant (HPLC purity, PXRD). To be noted: accelerated stability at 40 ± 2° C. under 75 ± 5% humidity condition upto 6 months. On the procedure:
as §1, §2, §3

A short description of data set [3]: Polymorphic stress study of amorphous Ubrogepant. The procedure: Ninth aspect of the first embodiment of the present invention, amorphous Ubrogepant is also stable under below Polymorphic stress study conditions:
as §3

Some results are limits rather than exact numbers.

Consider `C[C@@H]1[C@H](c2ccccc2)C[C@H](NC(=O)c2cnc3c(c2)C[C@@]2(C3)C(=O)Nc3ncccc32)C(=O)N1CC(F)(F)F` [Amorphous Ubrogepant, (3′S)—N-((3S,5S,6R)-6-methyl-2-oxo-5-phenyl-1-(2,2,2-trifluoroethyl)piperidin-3-yl)-2′-oxo-1′,2′,5,7-tetrahydrospiro [cyclopenta[b]pyridine-6,3′-pyrrolo[2,3-b]pyridine]-3-carboxamide], for which the “PXRD Result” value in data set [1] and in data set [2] was “stable” in each case. Also, the “Purity by HPLC” value in data set [1] and in data set [2] was above 99.75% in each case. Also, the “Result (polymorphic stability)” value in data set [3] (hygroscopicity analysis (75 ± 5% RH), 24 hours) is recorded as “stable”; in data set [3] (stress study under 10 tons pressure, 3 mins) it was “stable”; in data set [3] (thermal analysis at 60° ± 2° C., 24 hours), “stable”; in data set [3] (under UV light at 254 nm, 24 hours), “stable”.
